Test results taken from PMC3261128, “Modulation of phosphofructokinase (PFK) from Setaria cervi, a bovine filarial parasite, by different effectors and its interaction with some antifilarials” (2011).

Columns and labels:
Assay type in all cases: biochemical
[1] = tested on: T1, Phosphofructokinase (PFK); conditions: 5000 µM
T1 construct: native enzyme purified from adult female worms

[2] = biological target: T2, rat liver PFK (phosphofructokinase) (Rattus norvegicus, UniProt P30835); assay: coupled enzyme assay (NADH oxidation), Ki and Hill plot
T2 construct: gene Pfkl; native enzyme partially purified from rat liver
T2 sequence (P30835 2-780): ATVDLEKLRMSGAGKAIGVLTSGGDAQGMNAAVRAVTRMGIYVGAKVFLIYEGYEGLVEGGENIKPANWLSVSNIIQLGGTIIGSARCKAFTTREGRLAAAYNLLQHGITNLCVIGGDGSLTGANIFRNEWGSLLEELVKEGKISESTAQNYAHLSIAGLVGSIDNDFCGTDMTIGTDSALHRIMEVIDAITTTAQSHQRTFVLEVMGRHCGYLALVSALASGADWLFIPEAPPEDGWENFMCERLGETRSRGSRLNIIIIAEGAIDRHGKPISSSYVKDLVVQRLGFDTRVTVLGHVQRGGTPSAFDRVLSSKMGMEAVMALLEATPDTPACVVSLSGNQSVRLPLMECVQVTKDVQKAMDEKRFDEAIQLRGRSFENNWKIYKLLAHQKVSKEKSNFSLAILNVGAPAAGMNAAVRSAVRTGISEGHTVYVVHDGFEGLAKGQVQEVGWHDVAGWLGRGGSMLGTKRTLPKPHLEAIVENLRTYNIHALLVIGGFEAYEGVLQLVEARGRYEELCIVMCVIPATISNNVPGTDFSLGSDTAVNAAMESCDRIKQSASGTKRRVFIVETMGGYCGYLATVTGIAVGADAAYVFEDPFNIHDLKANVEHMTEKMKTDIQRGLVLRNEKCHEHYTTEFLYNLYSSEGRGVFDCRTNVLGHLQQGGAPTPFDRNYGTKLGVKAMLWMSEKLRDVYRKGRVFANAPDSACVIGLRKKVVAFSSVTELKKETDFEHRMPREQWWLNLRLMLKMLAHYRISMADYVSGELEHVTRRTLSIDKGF
Description: coupled enzyme assay (NADH oxidation), Ki and Hill plot on rat liver PFK (phosphofructokinase) | inhibition of rat liver PFK was of the non-competitive type (Figure 5A) and the Ki value of suramin

[3] = biological target: T1, Phosphofructokinase (PFK); assay: as above

c1ccc([C@H]2CN3CCSC3=N2)cc1 [Levamisole]
% Residual Activity / 5 [1]: 45

Cc1ccc(C(=O)Nc2ccc(S(=O)(=O)O)c3cc(S(=O)(=O)O)cc(S(=O)(=O)O)c23)cc1NC(=O)c1cccc(NC(=O)Nc2cccc(C(=O)Nc3cc(C(=O)Nc4ccc(S(=O)(=O)O)c5cc(S(=O)(=O)O)cc(S(=O)(=O)O)c45)ccc3C)c2)c1 [suramin]
Ki [2]: 0.04 ± 0.001 µM | Ki [3]: 0.0011 ± 0.0001 µM
